In US20050288347A1, “Certain triazole-based compounds, compositions, and uses thereof” (priority 2004, published 2005):
Entries after “also recorded” stand apart in the source; their conditions may differ.

What follows are molecules tested against protein kinase (assay: HTS ATP-utilizing enzyme assay, off-chip mobility-shift format (Caliper HTS 250)). Details: kinase(s) for which the compound exhibits protein kinase inhibitory activity; test compound 10 μM; active = greater than three-sigma from the mean activity of inactive compounds.
Type: biochemical, human
Outline: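 Kinase reactions ran 2.5 h at 20 to 22 °C with test compound at 10 μM, in a HEPES pH 7.5 master buffer containing Triton X-100 and BSA. Peptide substrate and phosphorylated product separated by mobility shift; inhibition normalized to DMSO (0%) and EDTA (100%) controls, with three-sigma thresholds for hits.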
With O=C(CSc1nnc(-c2ccc(O)cc2)n1Cc1ccco1)N1CCCc2ccccc21 the Kinase was “GSK3-β; also recorded: GSK3-α”. In the case of COc1ccc(OCc2nnc(SCC(=O)N3CCCc4ccccc43)n2-c2ccc(C)cc2)cc1, the Kinase is reported as “LCK”. For Cc1ccc(-n2c(SCC(=O)N3CCCCC3)nnc2-c2ccncc2)cc1, the Kinase was “FYN”. In the case of O=C(CSc1nnc(-c2ccc([N+](=O)[O-])cc2)n1CC1CCCO1)N1CCOCC1 (stereo not drawn), the Kinase is reported as “PDGFRR-α”. For NC(=O)c1c(NC(=O)CSc2nnc(-c3ccccc3)n2Cc2ccco2)sc2c1CCC2, the Kinase was “GSK3-α and GSK3-β and PAK2”. Cn1c(COc2ccc([N+](=O)[O-])cc2)nnc1SCC(=O)Nc1sc2c(c1C(N)=O)CCCC2 was tested, and the Kinase was “GSK3-β; also recorded: GSK3-α; also recorded: AURORA-A”. With NC(=O)c1c(NC(=O)CSc2nnc(-c3ccncc3)n2CC2CCCO2)sc2c1CCCC2 (stereo not drawn) the Kinase was “GSK3-β; also recorded: GSK3-α; also recorded: AURORA-A”. Cc1ccc(C)c(-n2c(SCC(N)=O)nnc2-c2ccc(O)cc2)c1 was tested, and the Kinase was “GSK3-β; also recorded: GSK3-α; also recorded: CDK2-cyclinE”. CN(C)CCCn1c(SCC(=O)NCc2ccco2)nnc1-c1ccncc1 was tested, and the Kinase was “PDGFRR-α and PAK2”. For COCCCn1c(C)nnc1SCC(=O)Nc1ccccc1[N+](=O)[O-], the Kinase was “FYN”. For O=C(CSc1nnc(-c2ccncc2)n1-c1ccc(F)cc1)Nc1nccs1, the Kinase was “GSK3-α; also recorded: GSK3-β; also recorded: CDK2-cyclinE”. In the case of O=C(CSc1nnc(-c2ccncc2)n1-c1ccc(F)cc1)Nc1cccc(O)c1, the Kinase is reported as “AURORA-A”. For COc1ccc(-n2c(SCC(N)=O)nnc2-c2ccc(S(=O)(=O)N3CCCC3)cc2)cc1, the Kinase was “MAPKAPK-2”. O=C(CSc1nnc(-c2ccc(O)cc2)n1Cc1ccco1)Nc1nccs1 was tested, and the Kinase was “GSK3-β and GSK3-α and MSK2”. For CC(Sc1nnc(-c2ccc(O)cc2)n1Cc1ccco1)C(=O)Nc1ccc([N+](=O)[O-])cc1 (stereo not drawn), the Kinase was “LCK”. COc1cc([N+](=O)[O-])ccc1NC(=O)CSc1nnc(-c2ccncc2)n1Cc1ccco1 was tested, and the Kinase was “FYN and PDGFRR-α and FLT-3”. O=C(CSc1nnc(-c2ccncc2)n1Cc1ccco1)Nc1cccc(O)c1 was tested, and the Kinase was “GSK3-β and GSK3-α and AKT3”. In the case of C=CCn1c(SCC(=O)Nc2cccc([N+](=O)[O-])c2)nnc1-c1ccncc1, the Kinase is reported as “FYN”. With O=C(CSc1nnc(-c2ccc(O)cc2)n1Cc1ccccc1)N1CCCCC1 the Kinase was “GSK3-α; also recorded: GSK3-β”. In the case of NC(=O)CSc1nnc(CNc2ccc(F)cc2)n1Cc1ccccc1, the Kinase is reported as “GSK3-β and AKT1 and GSK3-α”. CCn1c(SCC(=O)N(C(C)C)C(C)C)nnc1-c1cc2ccccc2cc1O was tested, and the Kinase was “c-TAK1”. With CCn1c(SCC(=O)N2CCCC(C)C2)nnc1-c1ccc(S(=O)(=O)N2CCN(C)CC2)cc1 (stereo not drawn) the Kinase was “FYN”. In the case of CCn1c(SCC(=O)Nc2nc(C)cs2)nnc1-c1ccc(S(=O)(=O)N2CCN(C)CC2)cc1, the Kinase is reported as “FYN”. For CCn1c(SCC(=O)Nc2nccs2)nnc1-c1ccc(S(=O)(=O)N2CCCC2)cc1, the Kinase was “GSK3-β; also recorded: GSK3-α”. For CCn1c(COc2cccc3ccccc23)nnc1SCC(=O)NCC1CCCO1 (stereo not drawn), the Kinase was “FYN”. In the case of CCn1c(COc2cccc(C)c2)nnc1SCC(=O)N1CCCCC1, the Kinase is reported as “FYN”. CCn1c(SCC(=O)NCc2ccco2)nnc1-c1ccccc1 was tested, and the Kinase was “FYN”. For Cn1c(SCC(=O)N2CCCC2)nnc1-c1ccc(S(=O)(=O)N2CCOCC2)cc1, the Kinase was “AURORA-A”. Cn1c(SCC(=O)Nc2nccs2)nnc1-c1ccc(S(=O)(=O)N2CCOCC2)cc1 was tested, and the Kinase was “GSK3-α; also recorded: GSK3-β”. In the case of Cc1ccc([N+](=O)[O-])cc1NC(=O)CSc1nnc(-c2ccc([N+](=O)[O-])cc2)n1C, the Kinase is reported as “PDGFRR-α”. With Cn1c(CNc2nc(-c3ccccc3)cs2)nnc1SCC(N)=O the Kinase was “FYN”. With NC(=O)CSc1nnc(-c2ccc(NS(=O)(=O)c3ccccc3)cc2)n1-c1ccccc1 the Kinase was “AURORA-A”. With Cc1ccc(NC(=O)CSc2nnc(CNc3cccc(C(F)(F)F)c3)n2-c2ccccc2)cc1 the Kinase was “MAPKAPK-2”. For NC(=O)CSc1nnc(COc2cccc3cccnc23)n1-c1ccccc1, the Kinase was “MAPKAPK-2”. With CC(C)N(C(=O)CSc1nnc(-c2ccccc2N)n1C)C(C)C the Kinase was “FYN and PRAK”. With CNC(=O)CSc1nnc(-c2cc3ccccc3cc2O)n1C the Kinase was “FYN”. Cn1c(SCC(=O)Nc2nccs2)nnc1-c1cc2ccccc2cc1O was tested, and the Kinase was “GSK3-β; also recorded: GSK3-α”. CCCOc1ccc(CNC(=O)CSc2nnc(-c3ccc(OC)c(OC)c3)n2C)cc1 was tested, and the Kinase was “AURORA-A; also recorded: DYRK2”. For COc1ccc(-c2nnc(SCC(=O)N3CCOCC3)n2-c2ccccc2)cc1OC, the Kinase was “AKT1”. With Cn1c(SCC(=O)N2CCc3ccccc32)nnc1-c1ccc(N)cc1 the Kinase was “MAPKAPK-2”. For O=C(CSc1nnc(-c2ccc(O)cc2)n1CC1CCCO1)Nc1nc2c(s1)CCCC2 (stereo not drawn), the Kinase was “GSK3-β; also recorded: AURORA-A”. Cn1c(SCC(=O)Nc2nc3c(s2)CCCC3)nnc1-c1ccc(O)cc1 was tested, and the Kinase was “GSK3-β; also recorded: GSK3-α; also recorded: CDK2-cyclinE”. In the case of Cn1c(SCC(=O)N2CCOCC2)nnc1-c1ccc(O)cc1, the Kinase is reported as “AURORA-A”. Cc1ccc(NC(=O)C(C)Sc2nnc(-c3ccc(O)cc3)n2-c2ccccc2)cc1 (stereo not drawn) was tested, and the Kinase was “HCK”. With Cn1c(Cn2nnc3ccccc32)nnc1SCC(=O)Nc1nccs1 the Kinase was “GSK3-β; also recorded: GSK3-α; also recorded: CDK2-cyclinE”. For Cn1c(Cn2cnc3ccccc32)nnc1SCC(=O)Nc1ccccc1Cl, the Kinase was “FYN”. For Cc1ccc(NCc2nnc(SCC(=O)NCc3ccco3)n2CC2CCCO2)c(C)c1 (stereo not drawn), the Kinase was “PDGFRR-α and FYN”. With Cc1ccc(NCc2nnc(SCC(N)=O)n2Cc2ccco2)c(C)c1 the Kinase was “PDGFRR-α”. With Cc1ccc(NCc2nnc(SCC(N)=O)n2CC2CCCO2)cc1Cl (stereo not drawn) the Kinase was “AURORA-A”. With CCn1c(COc2ccc(Cl)c(C)c2)nnc1SCC(=O)N1CCCCC1 the Kinase was “FYN”. CCOc1ccc(NCc2nnc(SCC(N)=O)n2-c2ccccc2)cc1 was tested, and the Kinase was “FYN and PDGFRR-α and FLT-3”. With COc1ccc(OCc2nnc(SC(C)C(=O)Nc3ccccc3C)n2C)cc1 (stereo not drawn) the Kinase was “PDGFRR-α”. For Cn1c(SCC(=O)Nc2cccc(O)c2)nnc1-c1ccco1, the Kinase was “CSK”. In the case of CC1CCN(C(=O)CSc2nnc(Cc3ccccc3)n2-c2cccc(Cl)c2)CC1, the Kinase is reported as “LCK”. In the case of COc1ccc(-n2c(Cc3ccccc3)nnc2SCC(=O)N2c3ccccc3Sc3ccccc32)cc1, the Kinase is reported as “SRC and LCK”. With CCn1c(Cc2ccccc2)nnc1SCC(=O)N1CCCc2ccccc21 the Kinase was “FYN”. With Cc1nc(NC(=O)CSc2nnc(C3CC3)n2C)sc1C the Kinase was “GSK3-β; also recorded: GSK3-α”. In the case of Cn1c(SCC(=O)Nc2nc3c(s2)CCCC3)nnc1C1CC1, the Kinase is reported as “CDK2-cyclinE”. In the case of COc1ccc(-n2c(S)nnc2CNc2cccc(C(F)(F)F)c2)cc1, the Kinase is reported as “GSK3-α; also recorded: GSK3-β”. In the case of CCN(CC)S(=O)(=O)c1ccc(-c2nnc(SCC(=O)N3C(C)CCCC3C)n2CC)cc1 (stereo not drawn), the Kinase is reported as “PDGFRR-α and FYN”. FC(F)(F)c1cccc(NCc2nnc(S)n2-c2ccccc2)c1 was tested, and the Kinase was “GSK3-α”. For Sc1nnc(CCc2nc3ccccc3[nH]2)n1-c1cccc(Cl)c1, the Kinase was “GSK3-α”. With CCOc1ccc(NCc2nnc(SCC(=O)Nc3cc(C(F)(F)F)ccc3Cl)n2-c2ccc(OC)cc2)cc1 the Kinase was “PAK2 and AURORA-A and FYN”. In the case of Cn1c(SCC(=O)Nc2cccc(NC(=O)c3ccco3)c2)nnc1-c1ccncc1, the Kinase is reported as “GSK3-β; also recorded: AURORA-A; also recorded: GSK3-α”. With Cc1nnc(SCC(=O)Nc2cccc(N)c2)n1-c1ccccc1 the Kinase was “FYN”. For Cn1c(SCC(=O)Nc2sc3c(c2C#N)CCCC3)nnc1-c1ccc(O)cc1, the Kinase was “PRAK and CDK2-cyclinE and DYRK2”. For COc1ccc(NCc2nnc(SCC(=O)Nc3sc4c(c3C#N)CCCC4)n2C)cc1, the Kinase was “DYRK2; also recorded: CDK2-cyclinE”. In the case of Cn1c(SCC(=O)Nc2cccc(O)c2)nnc1-c1ccc(NS(C)(=O)=O)cc1, the Kinase is reported as “AURORA-A”. In the case of CC(=O)c1ccc(NC(=O)CSc2nnc(C)n2-c2ccccc2)cc1, the Kinase is reported as “AKT1”. In the case of CCOc1ccc(NC(=O)CSc2nnc(-c3ccc(O)cc3)n2-c2ccccc2)cc1, the Kinase is reported as “HCK”. In the case of COCCn1c(SCC(=O)Nc2ccc(F)cc2)nnc1-c1ccncc1, the Kinase is reported as “FYN”. Cc1nc(NC(=O)CSc2nnc(-c3cccnc3)n2Cc2ccco2)sc1C was tested, and the Kinase was “GSK3-β; also recorded: AURORA-A”. For CCc1nnc(NC(=O)CSc2nnc(-c3cccc(C)c3)n2CC)s1, the Kinase was “LCK”. In the case of CCc1nnc(NC(=O)CSc2nnc(-c3ccc(NS(=O)(=O)c4ccc(C)cc4)cc3)n2C)s1, the Kinase is reported as “PDGFRR-α”. CCc1nnc(NC(=O)CSc2nnc(-c3ccc(O)cc3)n2C)s1 was tested, and the Kinase was “GSK3-β; also recorded: GSK3-α”. With Cn1c(CNc2cccc(C(F)(F)F)c2)nnc1SCC(=O)Nc1ccc2c(c1)OCO2 the Kinase was “AURORA-A”. For COc1ccc(NCc2nnc(SCC(=O)NCc3ccco3)n2-c2ccccc2OC)cc1, the Kinase was “PDGFRR-α and FYN”. In the case of COCCCn1c(C)nnc1SCC(=O)NCc1ccco1, the Kinase is reported as “FYN”. With O=C(CSc1nnc(-c2ccncc2)n1Cc1ccco1)NCc1ccco1 the Kinase was “FYN”. With O=C(CSc1nnc(-c2ccc(O)cc2)n1-c1ccccc1)NCc1ccco1 the Kinase was “GSK3-β; also recorded: GSK3-α”. With Cn1c(CNc2nc(-c3ccccc3)cs2)nnc1SCC(=O)NCc1ccccc1 the Kinase was “PDGFRR-α and PKA”. For COc1cccc(-n2c(SCC(=O)NC(C)(C)C)nnc2-c2cccnc2)c1, the Kinase was “AURORA-A”. CCOC(=O)c1sc(NC(=O)CSc2nnc(-c3ccc(OC)cc3)n2CCOC)nc1C was tested, and the Kinase was “GSK3-β; also recorded: GSK3-α”. For CCOC(=O)CN(C(=O)CSc1nnc(-c2ccncc2)n1Cc1ccco1)c1cccc([N+](=O)[O-])c1, the Kinase was “FYN and GSK3-α”. In the case of CCOC(=O)c1sc(NC(=O)CSc2nnc(Cn3nnc4ccccc43)n2C)nc1C, the Kinase is reported as “GSK3-β”. In the case of CCOC(=O)c1ccc(NC(=O)CSc2nnc(COc3ccc(OC)cc3)n2CC)cc1, the Kinase is reported as “FYN”. In the case of CCOC(=O)c1c(NC(=O)CSc2nnc(-c3ccccc3O)n2-c2ccc(C)cc2)sc(C(C)=O)c1C, the Kinase is reported as “LCK”. In the case of CCOC(=O)c1c(NC(=O)CSc2nnc(CNc3ccc(OC)cc3)n2C)sc(C(C)=O)c1C, the Kinase is reported as “AURORA-A and FYN and PDGFRR-α”. With COCCn1c(SCC(=O)Nc2ccccc2C(=O)OC)nnc1-c1ccncc1 the Kinase was “GSK3-β; also recorded: GSK3-α”. COC(=O)c1sc(NC(=O)CSc2nnc(-c3ccc(NS(C)(=O)=O)cc3)n2C)nc1C was tested, and the Kinase was “GSK3-β; also recorded: GSK3-α”.
